Assays:
[1] = tested on: human skin transplanted to the SCID mouse; assay: Sebum production: Human Skin-SCID Mouse Chimera Model; assay type: in vivo; details: for % Inh Squalene (Human Sebaceous Lipids) / % Inh Triglycerides (Human Sebaceous Lipids) / % Inh W/E (Human Sebaceous Lipids): 11 Day Treatment; for % Inh Cholesterol Ester, Lipid Accumulation / % Inh Cholesterol, Lipid Accumulation / % Inh Cholesterol, Sebaceous Lipid Synthesis / % Inh Squaline, Lipid Accumulation / % Inh Squaline, Sebaceous Lipid Synthesis / % Inh Triglycerides, Lipid Accumulation / % Inh Triglycerides, Sebaceous Lipid Synthesis / % Inh Wax Esters, Lipid Accumulation / % Inh Wax Esters, Sebaceous Lipid Synthesis: 30 Day Treatment
From the text: C.B-17 scid/scid mice (Taconic, Germantown, N.Y.) were used for grafting at 5–6 weeks of age. Full thickness human facial skin was shaved to ˜0.4 mm using a Forman Dermatome. The skin shavings were washed 3 times in antibiotics and antimycotics (penicillin, streptomycin, fungizone) (Life technologies) in Dulbecco's Modified Eagle Medium (DMEM, Life Technologies). Eliptical skin ˜2.0–2.5×1.0–1.5 was grafted onto the prepared graft bed and sutured using 4.0 silk. During surgical procedures the mice were anaesthetized using a mixture of Ketaset (0.16 mg/g body weight) and Rompun (8.0 μg/g body weight).
It is well accepted that the wound healing process of the transplanted skin in the SCID mouse takes one month, at which time the human skin can be used for experimental purposes. […] Maximum size of the glands was observed 3 month post transplantation. The glands retained their capability to produce human specific sebum and the glandular tissue expressed human specific markers including MC5-R. Since glands reached their maximum size at 2–3 month post transplantation the effects of inhibitors of sebum secretion was tested at this point.
Mice at 2–3 month post transplantation with human facial skin were used for the studies. The graft area was treated with the test compound at the desired concentration(s) dissolved in polyethylene glycol-ethanol (20 μl/2 cm^2). Controls were treated with vehicle alone. The test compounds were applied daily, excluding weekends. Sebum secretion was determined using Sebutape at 15 days and 30 days following treatment.
The termination of the experiment was determined by preliminary clinical evaluation of sebum production using SEBUTAPE. At this time human skin grafts were excised and representative samples were collected for histological evaluation. More particularly, 2 mm punch biopsies were prepared and used for evaluation of lipid synthesis and total lipid accumulation in the treated tissues.
The collected—2 mm punch biopsies were placed individually into 96 well plates in Krebs buffer and labeled with 10 μCi of ^14C acetate for 3 hours. Following this labeling period the samples were washed in medium and 5 biopsies pooled, weighed, and used for lipid extraction. The lipid extraction and analysis by HPTLC was the same as described for tissue culture derived cells. […]

[2] = tested on: human sebocytes; assay: cells; assay type: cell-based; details: read-out: % Inh Unknown lipid synthesis
[3] = target: T1, melanocortin MC-4 receptor (Homo sapiens, UniProt P32245); assay: MC-4 receptor binding (Filtration); details: cell prints its own unit nm in the Filtration (μM) column; read-out: IC50 MC-4 (Filtration)
T1 construct: purchased Receptor Biology Inc
Protocol: The procedures described above for the melanocortin MC-4 receptor were repeated for the melanocortin MC-3 receptor. Following the procedures described, representative compounds of the present invention were tested for binding in the MC-4 and/or MC-3 assay, as listed in Table 4.

[4] = 30 days of topical treatment with 0.05% and 0.01% solution

T1 sequence (P32245 whole entry): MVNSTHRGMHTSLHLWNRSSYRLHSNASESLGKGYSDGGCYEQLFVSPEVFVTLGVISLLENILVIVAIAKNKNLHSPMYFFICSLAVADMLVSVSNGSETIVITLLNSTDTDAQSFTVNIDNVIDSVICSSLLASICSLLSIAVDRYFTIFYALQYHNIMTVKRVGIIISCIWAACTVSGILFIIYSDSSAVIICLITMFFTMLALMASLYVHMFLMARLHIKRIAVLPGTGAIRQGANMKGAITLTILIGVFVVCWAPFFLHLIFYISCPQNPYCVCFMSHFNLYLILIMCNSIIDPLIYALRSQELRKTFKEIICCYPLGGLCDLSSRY

With `COc1ccccc1-c1nc(Nc2ccccc2)s[n+]1-c1ccccc1OC.[Br-]` [Compound 74, 2-(2-methoxyphenyl)-3-(2-methoxyphenyl)-5-phenylamino-[1,2.4]thiadiazol-2-ium] the “% Inh Squalene (Human Sebaceous Lipids)” value ([1]; 0.01% topical) was 0%, the “% Inh Triglycerides (Human Sebaceous Lipids)” value ([1]; 0.01% topical) was 0% and the “% Inh W/E (Human Sebaceous Lipids)” value ([1]; 0.01% topical) was 25%. The “% Inh Cholesterol Ester, Lipid Accumulation” value ([1]; 0.01% topical) was 44%, the “% Inh Cholesterol, Lipid Accumulation” value ([1]; 0.01% topical) was 33% and the “% Inh Cholesterol, Sebaceous Lipid Synthesis” value ([1]; 0.01% topical) was 33%. For the same compound, the “% Inh Squaline, Lipid Accumulation” value ([1]; 0.01% topical) was 82%, the “% Inh Squaline, Sebaceous Lipid Synthesis” value ([1]; 0.01% topical) was 80% and the “% Inh Triglycerides, Lipid Accumulation” value ([1]; 0.01% topical) was 75%. The “% Inh Triglycerides, Sebaceous Lipid Synthesis” value ([1]; 0.01% topical) was 75%, the “% Inh Wax Esters, Lipid Accumulation” value ([1]; 0.01% topical) was 86% and the “% Inh Wax Esters, Sebaceous Lipid Synthesis” value ([1]; 0.01% topical) was 86%. The “% Inh Cholesterol Ester, Lipid Accumulation” value ([1]; 0.05% topical) was 21%, the “% Inh Cholesterol, Lipid Accumulation” value ([1]; 0.05% topical) was 82% and the “% Inh Cholesterol, Sebaceous Lipid Synthesis” value ([1]; 0.05% topical) was 82%. The “% Inh Squaline, Lipid Accumulation” value ([1]; 0.05% topical) was 73%, the “% Inh Squaline, Sebaceous Lipid Synthesis” value ([1]; 0.05% topical) was 90% and the “% Inh Triglycerides, Lipid Accumulation” value ([1]; 0.05% topical) was 90%. The “% Inh Triglycerides, Sebaceous Lipid Synthesis” value ([1]; 0.05% topical) was 90%, the “% Inh Wax Esters, Lipid Accumulation” value ([1]; 0.05% topical) was 93% and the “% Inh Wax Esters, Sebaceous Lipid Synthesis” value ([1]; 0.05% topical) was 93%. For the same compound, the “% Inh Squalene (Human Sebaceous Lipids)” value ([1]; 0.1% topical) was 70%, the “% Inh Triglycerides (Human Sebaceous Lipids)” value ([1]; 0.1% topical) was 50% and the “% Inh W/E (Human Sebaceous Lipids)” value ([1]; 0.1% topical) was 80%. For the same compound, the “% Inh Squalene (Human Sebaceous Lipids)” value ([1]; 0.5% topical) was 0%, the “% Inh Triglycerides (Human Sebaceous Lipids)” value ([1]; 0.5% topical) was 0% and the “% Inh W/E (Human Sebaceous Lipids)” value ([1]; 0.5% topical) was 10%. The “de novo synthesis of sebaceous lipids” value [1, 4] was “significantly decreased”, the “total sebaceous lipid accumulation” value [1, 4] was “significantly decreased” and the “down regulation of sebaceous lipids” value ([1]; topical treatment for 15 days with 0.05% and 0.005% solutions) was “not sufficient to down regulate the lipids”. For the same compound, the “Visual evaluation of the sebaceous gland” value ([1]; topical treatment with 0.1% solution) was “visible shrinkage of the sebaceous gland and down regulation of sebaceous lipids”, the inhibition at 0.4 µM [2] was 75% and the inhibition at 0.6 µM [2] was 80%.
Compound `c1ccc(CNc2nc(-c3ccccc3)[n+](-c3ccccc3)s2)cc1` [Compound 84] has an IC50 [3] of 0.082 µM.
